Read-outs that look alike come from different tables or passages of the source.
Key:
[1] = Phase 1 clinical study in healthy subjects: plasma pharmacokinetics and food effect; assay type: in vivo, human
Procedure: A randomized, double‐blind, third‐party open (i.e., subject and Investigator blind, and Sponsor open), placebo‐controlled study was conducted in healthy subjects to investigate the safety, tolerability, and pharmacokinetics of single and multiple oral doses of PF‐04895162 and to characterize the effect of food on the pharmacokinetics of a single oral dose of PF‐04895162. The study was conducted in accordance with the International Conference on Harmonization guideline for Good Clinical Practice and the principles of the Declaration of Helsinki and was approved by the local independent ethics committee. All subjects gave written informed consent prior to participation in the study. The study was planned as a parallel group, dose escalation study in four cohorts of 10 subjects each, however, the study was terminated prematurely and only Cohort 1 was conducted. After an initial screening visit to confirm eligibility, subjects in Cohort 1 (Figure 1) received single oral doses of 300 mg PF‐04895162 in Period 1 (under fasting conditions) and Period 2 (under fed conditions), and then 300 mg BID PF‐04895162 or placebo for 14 days (under fasting conditions) in Period 3 (the final dose was administered on the morning of Day 14). In Period 2, subjects were given a high‐fat breakfast 25 minutes prior to dosing which had to be consumed within 20 minutes. In all periods, subjects were fasted for at least 8 hours prior to morning dosing (except for breakfast in Period 2), and received lunch and dinner approximately 4 and 9‐10 hours after the morning dose, respectively. In Period 3, subjects were randomized so that eight subjects received PF‐04895162 and two subjects received placebo. The single doses in Periods 1 and 2, and the first dose in Period 3 were each separated by 3 days. A follow‐up visit was conducted 7‐14 days after the final dose. The ClinicalTrials.gov identifier was NCT01691274.
Safety was assessed throughout the study by monitoring adverse events, vital signs (blood pressure, pulse rate, and body temperature), 12‐lead ECGs, and physical examinations. Blood samples for safety laboratory assessments were collected prior to and 24 hours after the first single dose of PF‐04895162 (Day 1 and 2 of Period 1), and in Period 3 on Days 7, 14, and 21 (additional samples were also collected in response to emerging safety data). The Columbia suicide severity rating scale (C‐SSRS) was also conducted at screening or baseline and at the follow‐up visit. Blood samples for pharmacokinetic profiles of PF‐04895162 were collected from predose to 72 hours after each single dose (Periods 1 and 2), and up to 12 and 48 hours after morning dosing on Days 7 and 14, respectively, in Period 3. Additional trough samples were also collected on Days 5, 6, 12, and 13 of Period 3.
The sample size of 10 subjects per cohort was chosen based on practical considerations and was considered sufficient to provide adequate safety information at each dose level. To assess the effect of food on the pharmacokinetics of PF‐04895162, natural log transformed area under the plasma concentration‐time curve (AUC) from time 0 to the last measured time point (AUClast), AUC from time 0 extrapolated to infinity (AUCinf) and maximum plasma concentration (Cmax) were analyzed using a mixed effects model with treatment (fed or fasted) as a fixed effect and subject as a random effect. Estimates of the adjusted mean differences (Fed ‐ Fasted) and corresponding 90% confidence intervals (CIs) were obtained from the model. The adjusted mean differences and 90% CIs for the differences were exponentiated to provide estimates of the ratio of adjusted geometric means (Fed/Fasted) and 90% CIs for the ratios. No formal hypothesis testing was conducted.

[2] = HepG2 72 hour cytotoxicity assay based on ATP depletion; assay type: cell-based; details: human, HepG2 cells; HepG2, after 72 hours
Text: […]

[3] = tested on: palmitate fatty acid oxidation; assay: mitochondrial fatty acid oxidation inhibition using palmitate; assay type: biochemical; details: N = 2; read-out: IC50 for impaired palmitate fatty acid oxidation
Text: […]

human hepatocytes = assay: mitochondrial respiratory reserve in human hepatocytes; assay type: cell-based; details: human hepatocytes treated for 25 minutes (data not shown)
MRP3 = molecular target: T1, MRP3 (Homo sapiens, UniProt O15438); assay: MRP3 transporter inhibition in vesicles from HEK293 cells; assay type: biochemical
T1 construct: host or cells: membrane vesicles from HEK293 cells
T1 sequence (O15438 whole entry): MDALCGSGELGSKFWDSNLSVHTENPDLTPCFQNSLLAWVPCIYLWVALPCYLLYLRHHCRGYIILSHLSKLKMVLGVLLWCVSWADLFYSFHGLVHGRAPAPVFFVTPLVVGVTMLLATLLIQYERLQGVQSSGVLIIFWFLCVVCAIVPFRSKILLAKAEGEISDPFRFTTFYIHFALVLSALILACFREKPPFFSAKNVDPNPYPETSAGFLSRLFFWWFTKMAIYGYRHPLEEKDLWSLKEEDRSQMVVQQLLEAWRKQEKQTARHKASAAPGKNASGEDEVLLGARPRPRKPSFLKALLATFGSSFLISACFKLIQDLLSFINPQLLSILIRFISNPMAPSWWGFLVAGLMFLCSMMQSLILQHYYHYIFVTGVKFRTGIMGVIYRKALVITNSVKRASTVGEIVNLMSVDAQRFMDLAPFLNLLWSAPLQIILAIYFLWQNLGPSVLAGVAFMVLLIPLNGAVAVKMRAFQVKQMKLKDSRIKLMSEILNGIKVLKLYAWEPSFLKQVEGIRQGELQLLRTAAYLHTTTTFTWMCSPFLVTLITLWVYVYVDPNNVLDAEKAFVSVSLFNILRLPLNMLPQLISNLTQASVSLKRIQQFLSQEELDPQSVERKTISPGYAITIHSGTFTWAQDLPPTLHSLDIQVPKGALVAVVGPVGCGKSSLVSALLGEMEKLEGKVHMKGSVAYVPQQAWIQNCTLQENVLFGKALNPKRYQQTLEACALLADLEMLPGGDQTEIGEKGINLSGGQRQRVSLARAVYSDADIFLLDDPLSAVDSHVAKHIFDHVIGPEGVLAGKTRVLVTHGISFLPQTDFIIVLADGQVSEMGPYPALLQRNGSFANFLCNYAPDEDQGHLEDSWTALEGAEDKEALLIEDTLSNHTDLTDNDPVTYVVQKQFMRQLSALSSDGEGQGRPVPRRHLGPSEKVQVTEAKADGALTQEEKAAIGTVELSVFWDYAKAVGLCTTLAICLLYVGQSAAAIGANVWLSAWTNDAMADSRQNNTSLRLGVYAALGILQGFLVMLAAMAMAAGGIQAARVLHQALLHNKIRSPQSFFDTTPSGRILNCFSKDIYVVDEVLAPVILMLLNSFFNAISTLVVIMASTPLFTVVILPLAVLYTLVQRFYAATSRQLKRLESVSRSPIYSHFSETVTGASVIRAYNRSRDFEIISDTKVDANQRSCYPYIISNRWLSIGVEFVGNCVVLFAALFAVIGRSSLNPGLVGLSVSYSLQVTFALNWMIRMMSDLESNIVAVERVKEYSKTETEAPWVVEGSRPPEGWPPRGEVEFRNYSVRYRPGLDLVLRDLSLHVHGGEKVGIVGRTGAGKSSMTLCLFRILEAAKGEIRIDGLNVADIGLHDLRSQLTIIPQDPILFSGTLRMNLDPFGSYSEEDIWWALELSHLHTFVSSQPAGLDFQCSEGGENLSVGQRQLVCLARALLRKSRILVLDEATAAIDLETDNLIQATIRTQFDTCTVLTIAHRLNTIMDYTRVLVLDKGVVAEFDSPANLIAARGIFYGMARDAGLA
Text: […]

[4] = 7-Day Oral Toxicity Study in Monkeys; assay type: in vivo, cynomolgus monkey; details: both sexes, cynomolgus monkey, plasma, oral, Day 7, males and females, read-out: total Cmax
Procedure: (§1) Male and female cynomolgus monkeys were administered PF-04895162 twice daily for 7 days at approximately 12 hours apart, with the dose split equally between the 2 daily doses. The highest administered does was 200 mg/kg/day.

cynomolgus monkeys = assay: 7-Day Oral Toxicity Study in Monkeys; assay type: in vivo, cynomolgus monkey; details: for liver weight: males and females
Procedure: as §1

[5] = 300 mg single dose, high-fat breakfast vs fasted

**Q.** For `O=C(Cc1ccc(F)cc1)Nn1c(C2CC2)nc2cc(F)ccc2c1=O` [PF‐04895162, N‐(2‐cyclopropyl‐7‐fluoro‐4‐oxoquinazolin‐3(4H)‐yl)‐2‐(4‐fluorophenyl)ethanamide], which “AUCinf, Ratio (90% Confidence Interval) of Adjusted Means, Fed vs Fasted” value [1, 5] is on record?
**A.** 113.27 (102.99, 124.58) %

**Q.** And the “AUClast, Ratio (90% Confidence Interval) of Adjusted Means, Fed vs Fasted” value [1, 5]?
**A.** 116.85 (106.90, 127.73) %

**Q.** And the “Cmax, Ratio (90% Confidence Interval) of Adjusted Means, Fed vs Fasted” value [1, 5]?
**A.** 202.92 (178.28, 230.95) %

**Q.** What about the AUC ([1]; human, plasma, oral, 300 mg, 300 mg BID, Day 7, subject with the highest ALT values, read-out: AUCtau, Subject 8) of the same compound?
**A.** 93000 ng·h/mL

**Q.** What about the Cmax ([1]; human, plasma, oral, 300 mg, 300 mg BID, Day 7, subject with the highest ALT values, read-out: Cmax, Subject 8 (converted)) of the same compound?
**A.** 10800 ng/mL

**Q.** What about the AUC ([1]; human, plasma, oral, 300 mg, Period 1, 300 mg fasted, Day 1 (N = 10), 12 h interval, geometric mean (%CV), read-out: AUCtau) of the same compound?
**A.** 40800 ng·h/mL

**Q.** What about the half-life ([1]; human, plasma, oral, 300 mg, Period 1, 300 mg fasted, Day 1 (N = 10), arithmetic mean ± SD, read-out: t½, terminal half-life (converted)) of the same compound?
**A.** 7.88 ± 3.2 h

**Q.** And the Cmax ([1]; human, plasma, oral, 300 mg, Period 1, 300 mg fasted, Day 1 (N = 10), geometric mean (%CV), read-out: Cmax)?
**A.** 4510 ng/mL

**Q.** And the Tmax ([1]; human, plasma, oral, 300 mg, Period 1, 300 mg fasted, Day 1 (N = 10), median (range))?
**A.** 5 h

**Q.** And the Cmax ([1]; human, plasma, oral, 300 mg, Period 1, 300 mg fasted, Day 1 (N = 10), total concentration, read-out: Cmax)?
**A.** 12.7 µM

**Q.** What about the half-life ([1]; human, plasma, oral, 300 mg, Period 2, 300 mg fed, Day 1 (N = 10), arithmetic mean ± SD, read-out: t½, terminal half-life (converted)) of the same compound?
**A.** 5.21 ± 1.17 h

**Q.** And the Cmax ([1]; human, plasma, oral, 300 mg, Period 2, 300 mg fed, Day 1 (N = 10), geometric mean (%CV), read-out: Cmax)?
**A.** 9150 ng/mL

**Q.** What about the Tmax ([1]; human, plasma, oral, 300 mg, Period 2, 300 mg fed, Day 1 (N = 10), median (range)) of the same compound?
**A.** 4 h

**Q.** What about the Cmax ([1]; human, plasma, oral, 300 mg, Period 2, 300 mg fed, Day 1 (N = 10), total concentration, read-out: Cmax) of the same compound?
**A.** 25.8 µM

**Q.** What about the Cmax at 7 day ([1]; human, plasma, oral, 300 mg, Period 3, 300 mg BID fasted, Day 7 (N = 7), geometric mean (%CV)) of the same compound?
**A.** 9430 ng/mL

**Q.** And the AUC ([1]; human, plasma, oral, 300 mg, Period 3, 300 mg BID fasted, Day 7 (N = 7), geometric mean (%CV), read-out: AUCtau)?
**A.** 85200 ng·h/mL

**Q.** What about the Tmax at 7 day ([1]; human, plasma, oral, 300 mg, Period 3, 300 mg BID fasted, Day 7 (N = 7), median (range)) of the same compound?
**A.** 2 h

**Q.** What about the Cmax at 7 day ([1]; human, plasma, oral, 300 mg, Period 3, 300 mg BID fasted, Day 7 (N = 7), total concentration) of the same compound?
**A.** 26.5 µM

**Q.** What about the half-life at 14 day ([1]; human, plasma, oral, 300 mg, Period 3, 300 mg BID fasted, Day 14 (N = 7), arithmetic mean ± SD, read-out: t½, terminal half-life (converted)) of the same compound?
**A.** 8.04 ± 3.29 h

**Q.** And the Cmax at 14 day ([1]; human, plasma, oral, 300 mg, Period 3, 300 mg BID fasted, Day 14 (N = 7), geometric mean (%CV))?
**A.** 8380 ng/mL

**Q.** And the AUC ([1]; human, plasma, oral, 300 mg, Period 3, 300 mg BID fasted, Day 14 (N = 7), geometric mean (%CV), read-out: AUCtau)?
**A.** 71200 ng·h/mL

**Q.** And the Tmax at 14 day ([1]; human, plasma, oral, 300 mg, Period 3, 300 mg BID fasted, Day 14 (N = 7), median (range))?
**A.** 2 h

**Q.** And the Cmax at 14 day ([1]; human, plasma, oral, 300 mg, Period 3, 300 mg BID fasted, Day 14 (N = 7), total concentration)?
**A.** 23.6 µM

**Q.** And the half-life ([1]; human, plasma, oral, 300 mg, similar after single and multiple dosing, 300 mg, read-out: Mean terminal half-life (converted))?
**A.** ~8 h

**Q.** And the IC50 at 72 h [2]?
**A.** ~130 µM

**Q.** What about the IC50 [3] of the same compound?
**A.** ~70 µM

**Q.** And the “Concentrations at which mitochondrial respiratory reserve was compromised” value (human hepatocytes)?
**A.** > 11 µmol/L

**Q.** And the “effect on MRP3” value (MRP3)?
**A.** no inhibitory effect

**Q.** And the Cmax ([4]; 150 mg/kg/day)?
**A.** > 27000 ng/mL

**Q.** And the Cmax ([4]; 200 mg/kg/day)?
**A.** > 24000 ng/mL

**Q.** What about the Treatment-related clinical findings (cynomolgus monkeys; 150 and/or 200 mg/kg/day) of the same compound?
**A.** decreased activity, ataxia, inappetence, stereotypy (hyper-reactivity, rigidity, jumping), tremors, loss of limb function, rapid eye movement, and eyelid partially/completely closed

**Q.** What about the thymus gland weight (cynomolgus monkeys; females, 150 and 200 mg/kg/day) of the same compound?
**A.** Decreased thymus gland weight

**Q.** And the liver weight (cynomolgus monkeys; 150 and 200 mg/kg/day)?
**A.** Increased liver weight

**Q.** What about the liver weight (cynomolgus monkeys; 150 and 200 mg/kg/day, listed as ICA-105665) of the same compound?
**A.** increased liver weight

**Q.** What about the brain weight (cynomolgus monkeys; males, 150 and 200 mg/kg/day) of the same compound?
**A.** dose-dependent increases in brain weight

**Q.** What about the “clinical chemistry (liver effects)” value (cynomolgus monkeys; twice daily for 7 days, up to 200 mg/kg/day) of the same compound?
**A.** no clinical chemistry changes suggestive of liver effects
